In patent publication US7390826B2, “Inhibitors of animal cell motility and growth” (The Board of Trustees of The University of Illinois, priority 2002, dated 2008):

Tested on: MDCK cell wounds
Experiment: lamellipodial density at the margin of MDCK cell wounds
Format: cell-based, canine
Conditions: for Lamellipodial Density: 50 μM, mean ± SEM, * p<0.05 vs control
Description: Lamellipodial protrusion is known to drive most forms of animal cell crawling. At any given time in the migrating cell sheet, some cells are extending lamellipodia at the margin while others are not. […] Therefore, inhibition of cell sheet migration by compound 1 at least in part is attributed to reduced formation of lamellipodia at the would margin.
Lamellipodial density at the margin of MDCK cell wounds was determined under the following treatment conditions: 0.1% DMSO (control, n=25 wounded monolayers), 50 μM compound 1 (n=19), or 50 μM compound 11 (n=10). Lamellipodial density is the number of lamellipodial protrusions detected at the wound margin until closure for the times indicated divided by margin perimeter length. Values are mean±SEM.
Wound closure assay and compound screening: MDCK cells were plated on multiwell tissue culture plates and cultured at 37° C. and 5% CO2 with medium changes every two days until confluent. When the cultures reached confluence, medium was changed again and all experimental treatments were begun a day later. Compounds were solubilized in dimethyl sulfoxide (DMSO) and added with fresh-medium to cell cultures at initial screening concentrations of 10 and 100 μM. Controls consisted of parallel wells to-which DMSO solvent carrier alone was added at the same concentration as that added with experimental treatments (not exceeding 0.1% (v/v)). DMSO alone at this concentration had no detectable effect on the cells. Monolayers were scraped 30 min later with a micropipette and ultramicro tips, allowing small wounds of consistent size to be generated. Progress of wound closure was examined at set time intervals following wounding by microscope, and inhibitory or acceleratory effects on wound closure relative to parallel controls noted. […] Digital images of the wounded monolayers were taken every 2 hours for 18 hours, and then at 30, 36, 54, 60, and 72 hours following wounding. The number of lamellipodia at the wound margin was also counted at these times.

## C/C=C/C(=O)N1C(=O)OC[C@@H]1Cc1ccccc1 [Compound 1, (4S)-3-((E)-2-butenoyl)-4-benzyl-2-oxazolidinone]
2 hours
  Lamellipodial Density: 0.341 ± 0.119
4 hours
  Lamellipodial Density: 0.573 ± 0.194*
6 hours
  Lamellipodial Density: 0.563 ± 0.142*
8 hours
  Lamellipodial Density: 0.938 ± 0.184*
10 hours
  Lamellipodial Density: 0.803 ± 0.203
12 hours
  Lamellipodial Density: 0.520 ± 0.124*
Versus control
  cells extending lamellipodia at the margin: significantly fewer cells extending lamellipodia at the margin
